Columns and labels:
SNL model in rats = experiment: Antiallodynic activity on Chung model (SNL, spinal nerve ligation), von Frey test; assay type: in vivo, Sprague-Dawley rats; settings: orally
Description: Male Sprague-Dawley rats (100-130 g, Orient Bio, Korea) were habituated for 1 week before the experiment, and allowed free access to food and water throughout the experimentation. Room temperature and humidity were maintained at 24±2 and 50±10%, respectively. The neuropathic surgery (SNL, Spinal nerve ligation) model was done as described in Kim and Chung (1992). Briefly, an animal was put under gaseous anesthesia with isoflurane. The left lumber spinal nerve L5 and L6 were isolated and tightly ligated with 6-0 silk thread. […]
Tactile sensitivity (Mechanical allodynia) was evaluated using von Frey monofilaments before and after treatment, and animals were included in the study only if the withdrawal threshold value was less than 4 g. […] The tactile sensitivity for the ipsilateral hind paw was measured using the up-and-down method (Dixon, 1980) with seven von Frey monofilaments (0.4, 1, 2, 4, 6, 8, and 15 g) in 3 trials. […] The 50% paw withdrawal threshold for each paw was calculated using the following formula: [Xth]log=[vFr]log+ky where [vFr] is the force of the last von Frey used, k=0.2249 which is the average interval (in log units) between the von Frey monofilaments, and y is a value that depends upon the pattern of withdrawal responses (Dixon, 1980). […]

ICR mice on hot plate = experiment: Hot-plate test; assay type: in vivo; settings: Mus musculus, po, orally, withdrawal latency
Method: To examine the pain relief effect of the carbamate compounds, a hot-plate test was conducted in referring to Current Protocols in Neuroscience; Behavioral Neuroscience Unit 8.9.
(§1) ICR mice (male, 25-28 g; Orient Bio, Korea) were habituated before test (in test room) for 1 hour. Animals were fasted 2 hr before administration of compounds. Compounds were orally administered at the three dose, 10 ul/g, by bodyweight (n=4-6/group). All compounds were dissolved in a vehicle of 30% (v/v) PEG 400 or 20% (v/v) Tween 80. The control group was treated the vehicle without compounds.
0.25-2.0 hr after the administration of compounds, the mice were put on a hot plate pre-heated to 55±1 (Hu, X. et al, 2008), and then, the withdrawal latency time was measured (cut-off time: 30 sec) until the point when each mouse was taking a paw off from the plate, shaking, licking a paw or hind leg, or jumping from the plate.

[1] = tested on: ICR mice, tail-flick analgesia meter; experiment: Tail-flick test; assay type: in vivo; settings: orally, withdrawal latency
Method: To examine the pain relief effect of the carbamate compounds, a tail-flick test was conducted, referring to Current Protocols in Neuroscience; Behavioral Neuroscience Unit 8.9.
as §1, with “25-30g;” for “25-28 g;”, “Each of Compound was” for “Compounds were”, “1-3” for “three”
After the administration of compounds, the mice tail were put on a tail-flick analgesia meter. To avoid tissue damage, maximal exposure time to pain stimuli was restricted to 15 s. The withdrawal latency was measured to the time to the point when each mouse responded. The relative values compared to the control (% control) were calculated.
The relative values compared to the sham were calculated and shown in Table 7, which show effect of the compound of examples on tail-flick test in Mice.

[2] = tested on: MES (electroshock) seizure in rats; experiment: Anti-epilepsy activity, MES test in rats; assay type: in vivo, SD rats; settings: Rattus norvegicus, po
Method in brief: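 Male ICR mice (19–25 g) and male SD rats (100–130 g) dosed orally with compound in 20% Tween 80/saline, then shocked via corneal electrodes at peak time (mice 50 mA, rats 150 mA; 60 Hz, 0.2 sec). Three doses used; ED50 for seizure protection by Litchfield–Wilcoxon log-probit.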

[3] = tested on: PTZ (Pentylenetetrazol)-induced clonic seizure in rats; experiment: Anti-epilepsy activity, scPTZ test in rats; assay type: in vivo, SD rats; settings: Rattus norvegicus, ip
Description: In this experiment, each test compound sample was formulated as described in Biological Experimental Example 1, and administered intraperitoneally to the test animals (mice; ICR or Rat; SD); Experimental animals, male ICR mice and male SD rats, were purchased from OrientBio or Nara biotech, Korea, and housed 4-5 mice per a cage for 4-5 days. The range of mice body weight was used between 19 and 26 grams and range of rats body weight was used between 100 and 130 grams. After Peak time (0.5, 1, 2 and 4 hr) from the administration, PTZ (Pentylenetetrazol) was administered subcutaneously in the concentration capable of inducing 97% intermittent convulsions (mice: 100-110 mg/kg?bw, 10 μl/g, or rats: 90-110 mg/kg?bw, 2 μl/g). If clonic seizure was not observed for at least 30 minutes in the PTZ administered animal, it can be considered that the test compound has anti-epilepsy activity. The median effective dose (ED50) is determined using 6 animals per a concentration (total three different concentrations), and calculated by Litchfield and Wicoxon log-probit method which is a dose-response relationship.

Row | Compound | SNL efficacy % (SNL model in rats; dose 30 mg/kg) | ED50 (ICR mice on hot plate) [mg/kg] | Tail-flick test Dose [1] [mg/kg] | ED50 [2] [mg/kg] | ED50 [3] [mg/kg] | ED50 (SNL model in rats; Rattus norvegicus, po, von Frey threshold relative to sham) [mg/kg]
1 | NC(=O)O[C@@H]1c2c(Cl)cccc2CC[C@@H]1O [Example 19, (1R, 2S)-8-chloro-2-hydroxy-1,2,3,4-tetrahydronaphthalen-1-yl carbamate] | 30(17.8%) | > 100 | >200 | 4.6 | 50 | 
2 | NC(=O)O[C@@H]1CCc2cccc(Cl)c2[C@@H]1O [Example 1, (1S, 2R)-8-chloro-1-hydroxy-1,2,3,4-tetrahydronaphthalen-2-yl carbamate] |  | 101 | >150 | 5.9 | 36.3 | 35.5

From patent publication US11168052B2, “Carbamate derivative compounds, processes for preparing them and their uses” (BIO-PHARM SOLUTIONS CO., LTD., priority 2016, dated 2021)
